Results on 4 compounds are retold here after patent US20140037715A1, “DISULFIRAM FORMULATION AND USES THEREOF” (UNIVERSITY OF WOLVERHAMPTON, priority 2010, published 2014).

Broadly, the IC50 is the midpoint of a concentration-inhibition curve.

In one series the test system is MCF7. As to the kind of experiment: MTT cytotoxicity assay, single drugs and combinations with Lipo-DS/Cu. The format is cell-based. The note with it: Homo sapiens, MCF7, 72 h.
The next series concerns MDA-MB-231. Described as above. The format is cell-based. The note with it: Homo sapiens, MDA-MB-231, 72 h.
For a further series, the system named is T47D. The series is described as above. The format is cell-based. The note with it: Homo sapiens, 72 h.
The subject of another series is S180 sarcoma. The series can be described thus: S180 sarcoma growth in mice. The format is in vivo. The note with it: S180 sarcoma bearing mice; DS 30 mg/kg oral, CuCl2 3 mg/kg oral.
A short description of another series: Stability in plasma. The format is in vitro ADME. The note with it: after 25 hours.
A short description of another series: Stability in whole blood. The format is in vitro ADME. The note with it: after 5 hours.
For series [1] the following is noted: cited from earlier work.
The next series concerns breast cancer cell lines. The series can be described thus: MTT cytotoxicity assay in breast cancer cell lines. The note with it: CuCl2 (10 μM) containing medium, 72 hours. A general note: Formazan colour is commonly taken as a measure of viable cells.

Procedure for MCF7: (§1) All cell lines were cultured in DMEM (Lonza, Wokingham, UK) supplemented with 10% FCS, 50 units/ml penicillin, 50 μg/ml streptomycin. For in vitro cytotoxicity assay, cells [5,000/well (10,000/well for MDA-MB-231PAC10)] were cultured overnight in 96-well flat-bottomed microtiter plates then exposed to drugs for 72 h and subjected to a standard MTT assay (Plumb J A, et al Cancer Res 1989; 49(16):4435-40).
(§2) The cells were then subjected to MTT analysis as described above. […] The combination index (CI) was determined by mutually exclusive equations.
Procedure for MDA-MB-231: as §1, §2
Procedure for S180 sarcoma: An S180 mouse sarcoma (FIGS. 6A-6C) and MDA-MB-231 breast cancer cells (1×10^6) (FIG. 6D-6F) were subcutaneously injected into the rare frank of BALB/c and CD1 Nu/Nu mice respectively (S180: n=5; MDA-MB-231: n=6).
Five-week-old female athymic CD1 nude mice used in this study were housed under pathogen-free conditions. Human MDA-MB-231 breast cancer or mouse S180 sarcoma cells (1×10^6) were injected s.c. at one flank of the mice. Tumour volume (V) was determined by the equation: V=(L×W^2)×0.5, where L is the length and W is the width of the tumour. When xenografts reached volumes of ˜200 mm^3, the mice showing tumours were randomly grouped for the following treatments. The first day of drug treatment was designated as day 1.
Five groups (5 mice/group) were set up for mice with S180 sarcoma: 1. control, No treatment; 2. […] DS, non-encapsulated DS 30 mg/kg dissolved in vegetable oil, oral administration; 5. DS/Cu: DS 30 mg/kg oral and CuCl2 3 mg/kg oral.
The animals were subjected to different treatments when their tumours reached 2 mm in diameter. The drugs were administrated on Monday, Wednesday and Friday for two successive weeks. […] For the combination treatment groups, CuCl2 were administered in the morning.
Procedure for T47D: as §1, §2
Procedure for breast cancer cell lines: After 72 hours, the viability of the treated cells was determined by MTT assay.
The viability was determined by MTT assay.
as §1
The cells were then subjected to MTT analysis as described above.

`Nc1ccn([C@@H]2O[C@H](CO)[C@@H](O)C2(F)F)c(=O)n1` [GEM alone, gemcitabine]: the IC50 in the series on MCF7 is 22.1 nM; in the series with MDA-MB-231, 12.3 nM; in the series with T47D, 35 nM.
On to `COc1cccc2c1C(=O)c1c(O)c3c(c(O)c1C2=O)C[C@@](O)(C(=O)CO)C[C@@H]3O[C@H]1C[C@H](N)[C@H](O)[C@H](C)O1` [Dox alone, doxorubicin], for which the 50% inhibitory concentration (IC50) in the series with MCF7 came to 440 nM; in the series with MDA-MB-231 it was 178 nM; in the series with T47D, 160 nM.
Take `CC(=O)O[C@H]1C(=O)[C@@]2(C)[C@H]([C@H](OC(=O)c3ccccc3)[C@]3(O)C[C@H](OC(=O)[C@H](O)[C@@H](NC(=O)c4ccccc4)c4ccccc4)C(C)=C1C3(C)C)[C@]1(OC(C)=O)CO[C@@H]1C[C@@H]2O` [Pac alone, paclitaxel]: the figures for the IC50 in the series on MCF7, in the series on MDA-MB-231 and with T47D were 4.3 nM, 9.3 nM and 2.6 nM, respectively.
As for `CCN(CC)C(=S)SSC(=S)N(CC)CC` [DS, disulfiram], the “in vivo anticancer effect” value with S180 sarcoma is “not detected”. The remaining in plasma entry in the series “Stability in plasma” was “about 15%”. The “remaining in whole blood” value in the series “Stability in whole blood” is given as “about 10%”. In series [1] (after oral administration of a 500 mg dose), the blood concentration result is “below the limit of detection”. In addition, the “half-life in the blood stream” value in series [1] (degraded by glutathione reductase system in erythrocytes) was 4 min. For the same compound, in the series on breast cancer cell lines, the “cytotoxicity to BC cell lines” value was “comparable cytotoxicity”.
